Source: US20110182953A1, “P[…] OF CALCIUM ACAMPROSATE” (priority 2009, published 2011)

Assay: accelerated stability tests
Format: physicochemical
Details: exposed to heat and/or humidity sources

SMILES: CC(=O)NCCCS(=O)(=O)O [form B, calcium acamprosate]
- stability of the polymorphic form in accelerated stability tests: does not alter
